# Results published in patent publication US10633419B2, “Immunomodulators” (BRISTOL-MYERS SQUIBB COMPANY, priority 2014, dated 2020).
# Positions of bridges follow the written chain, without caps; N, C: chain ends. Non-standard residues stand in square brackets, D forms with d. Residues, ends and D or L forms follow the SMILES beside them. *: point of attachment. Trp(1-CH2COOH) = N[C@@H](Cc1cn(CC(=O)O)c2ccccc12)C(=O)O; X8 = O=C(O)CCCCCCCCCCCCNC(=O)CCC(=O)NCCCOCCOCCOCCCN*; d(cisHyp) = O=C(O)[C@H]1C[C@@H](O)CN1; NH(CH2)12COOH = O=C(O)CCCCCCCCCCCCN*; cisHyp = O=C(O)[C@@H]1C[C@H](O)CN1; Hyp = O=C(O)[C@@H]1C[C@@H](O)CN1; NMeNle = CCCC[C@H](NC)C(=O)O; X20 = O=C(O)CCCCCCCCCCCCCN*; NMeA = CN[C@@H](C)C(=O)O; Dab = NCC[C@H](N)C(=O)O; Dap = NC[C@H](N)C(=O)O
# Molecular target: T1, PD-L1 (Homo sapiens, UniProt Q9NZQ7)
# T1 construct: hPDL1(19-239)-TVMV-His; made in house; host or cells: HEK293T
# Experiment: PD-1/PD-L1 Homogenous Time-Resolved Fluorescence (HTRF) binding assay (PD-1-Ig/PD-L1-His)
# Conditions: inhibition of PD-1-Ig binding to PD-L1-TVMV-His; value given as range class; read-out: HTRF IC50
# How it was run: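 HTRF competition in dPBS with 0.1% BSA and 0.05% Tween-20: 20 nM PD-1-Ig added after 15 min compound pre-incubation with 10 nM PD-L1-His, then another 15 min. Signal (665/620 nm) after 30 min with APC anti-His (20 nM) and Eu anti-Ig (1 nM).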
# T1 sequence (Q9NZQ7 with tags, fused parts or gaps): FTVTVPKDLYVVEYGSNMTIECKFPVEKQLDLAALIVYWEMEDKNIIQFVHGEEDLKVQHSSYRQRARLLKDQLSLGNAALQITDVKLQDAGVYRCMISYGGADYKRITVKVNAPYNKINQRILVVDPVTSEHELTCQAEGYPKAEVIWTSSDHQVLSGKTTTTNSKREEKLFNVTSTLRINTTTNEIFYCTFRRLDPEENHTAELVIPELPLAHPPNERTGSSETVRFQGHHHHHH
row,Structure (SMILES),IC50
1,CCCC[C@H]1C(=O)N(C)[C@@H](CCCC)C(=O)N[C@@H](CC(C)C)C(=O)N[C@H](C(=O)NCC(=O)N[C@@H](CC(=O)O)C(=O)N[C@@H](CC(=O)O)C(=O)NCCCCCCCCCCCCC(=O)O)CSCC(=O)N[C@@H](Cc2ccc(O)cc2)C(=O)N(C)[C@@H](C)C(=O)N[C@@H](CC(N)=O)C(=O)N2CCC[C@H]2C(=O)N[C@@H](CN)C(=O)N[C@@H](CC(C)C)C(=O)N2C[C@H](O)C[C@H]2C(=O)N[C@@H](Cc2c[nH]c3ccccc23)C(=O)N[C@@H](CCN)C(=O)N[C@@H](Cc2cn(CC(=O)O)c3ccccc23)C(=O)N1C [Example 11217] ({CH2CO}-Y[NMeA]NP[Dap]L[Hyp]W[Dab][Trp(1-CH2COOH)][NMeNle][NMeNle]LCGDD-{NH(CH2)12COOH}; thioether N-14),10 to 99 nM
2,CCCC[C@H]1C(=O)N(C)[C@@H](CCCC)C(=O)N[C@@H](CC(C)C)C(=O)N[C@H](C(=O)NCC(=O)N[C@@H](CC(=O)O)C(=O)N[C@@H](CC(=O)O)C(=O)NCCCCCCCCCCCCC(=O)O)CSCC(=O)N[C@@H](Cc2ccc(O)cc2)C(=O)N(C)[C@@H](C)C(=O)N[C@@H](CC(=O)O)C(=O)N2CCC[C@H]2C(=O)N[C@@H](Cc2cnc[nH]2)C(=O)N[C@@H](CCCCN)C(=O)N2C[C@H](O)C[C@H]2C(=O)N[C@@H](Cc2c[nH]c3ccccc23)C(=O)N[C@@H](CCCCN)C(=O)N[C@@H](Cc2cn(CC(=O)O)c3ccccc23)C(=O)N1C [Example 11218] ({CH2CO}-Y[NMeA]DPHK[Hyp]WK[Trp(1-CH2COOH)][NMeNle][NMeNle]LCGDD-{NH(CH2)12COOH}; thioether N-14),10 to 99 nM
3,CCCC[C@H]1C(=O)N(C)[C@@H](CCCC)C(=O)N[C@@H](CC(C)C)C(=O)N[C@H](C(=O)NCCCOCCOCCOCCCNC(=O)CCC(=O)NCCCCCCCCCCCCC(=O)O)CSCC(=O)N[C@@H](Cc2ccc(O)cc2)C(=O)N(C)[C@@H](C)C(=O)N[C@@H](CC(=O)O)C(=O)N2CCC[C@H]2C(=O)N[C@@H](Cc2cnc[nH]2)C(=O)N[C@@H](CCCCN)C(=O)N2C[C@H](O)C[C@H]2C(=O)N[C@@H](Cc2c[nH]c3ccccc23)C(=O)N[C@@H](CCCCN)C(=O)N[C@@H](Cc2cn(CC(=O)O)c3ccccc23)C(=O)N1C [Example 11219] ({CH2CO}-Y[NMeA]DPHK[Hyp]WK[Trp(1-CH2COOH)][NMeNle][NMeNle]LC-X8; thioether N-14),10 to 99 nM
4,CCCC[C@H]1C(=O)N(C)[C@@H](CCCC)C(=O)N[C@@H](CC(C)C)C(=O)N[C@H](C(=O)NCC(=O)NCC(=O)N[C@@H](CC(=O)O)C(=O)NCCCCCCCCCCCCC(=O)O)CSCC(=O)N[C@@H](Cc2ccc(O)cc2)C(=O)N(C)[C@@H](C)C(=O)N[C@@H](CC(=O)O)C(=O)N2CCC[C@H]2C(=O)N[C@@H](Cc2cnc[nH]2)C(=O)N[C@@H](CCCCN)C(=O)N2C[C@H](O)C[C@H]2C(=O)N[C@@H](Cc2c[nH]c3ccccc23)C(=O)N[C@@H](CCCCN)C(=O)N[C@@H](Cc2cn(CC(=O)O)c3ccccc23)C(=O)N1C [Example 11220] ({CH2CO}-Y[NMeA]DPHK[Hyp]WK[Trp(1-CH2COOH)][NMeNle][NMeNle]LCGGD-{NH(CH2)12COOH}; thioether N-14),10 to 99 nM
5,CCCC[C@H]1C(=O)N(C)[C@@H](CCCC)C(=O)N[C@@H](CC(C)C)C(=O)N[C@H](C(=O)NCC(=O)NCC(=O)N[C@@H](CC(=O)O)C(=O)NCCCCCCCCCCCCC(=O)O)CSCC(=O)N[C@@H](Cc2ccc(O)cc2)C(=O)N(C)[C@@H](C)C(=O)N[C@@H](CC(N)=O)C(=O)N2CCC[C@H]2C(=O)N[C@@H](CN)C(=O)N[C@@H](CC(C)C)C(=O)N2C[C@H](O)C[C@H]2C(=O)N[C@@H](Cc2c[nH]c3ccccc23)C(=O)N[C@@H](CCN)C(=O)N[C@@H](Cc2cn(CC(=O)O)c3ccccc23)C(=O)N1C [Example 11221] ({CH2CO}-Y[NMeA]NP[Dap]L[Hyp]W[Dab][Trp(1-CH2COOH)][NMeNle][NMeNle]LCGGD-{NH(CH2)12COOH}; thioether N-14),10 to 99 nM
6,CCCC[C@H]1C(=O)N(C)[C@@H](CCCC)C(=O)N[C@@H](CC(C)C)C(=O)N[C@H](C(=O)NCC(=O)N[C@@H](CC(=O)O)C(=O)NCC(=O)NCCCCCCCCCCCCC(=O)O)CSCC(=O)N[C@@H](Cc2ccc(O)cc2)C(=O)N(C)[C@@H](C)C(=O)N[C@@H](CC(N)=O)C(=O)N2CCC[C@H]2C(=O)N[C@@H](CN)C(=O)N[C@@H](CC(C)C)C(=O)N2C[C@H](O)C[C@H]2C(=O)N[C@@H](Cc2c[nH]c3ccccc23)C(=O)N[C@@H](CCN)C(=O)N[C@@H](Cc2cn(CC(=O)O)c3ccccc23)C(=O)N1C [Example 11223] ({CH2CO}-Y[NMeA]NP[Dap]L[Hyp]W[Dab][Trp(1-CH2COOH)][NMeNle][NMeNle]LCGDG-{NH(CH2)12COOH}; thioether N-14),10 to 99 nM

# The next lines start with the values.
row,IC50,Structure (SMILES)
1,10 to 99 nM,CCCC[C@H]1C(=O)N(C)[C@@H](CCCC)C(=O)N[C@@H](CC(C)C)C(=O)N[C@H](C(=O)NCC(=O)NCC(=O)N[C@@H](CC(=O)O)C(=O)NCCCCCCCCCCCCCC(=O)O)CSCC(=O)N[C@@H](Cc2ccc(O)cc2)C(=O)N(C)[C@@H](C)C(=O)N[C@@H](CC(N)=O)C(=O)N2CCC[C@H]2C(=O)N[C@@H](CN)C(=O)N[C@@H](CC(C)C)C(=O)N2C[C@H](O)C[C@@H]2C(=O)N[C@@H](Cc2c[nH]c3ccccc23)C(=O)N[C@@H](CCN)C(=O)N[C@@H](Cc2cn(CC(=O)O)c3ccccc23)C(=O)N1C [Example 11201] ({CH2CO}-Y[NMeA]NP[Dap]L[d(cisHyp)]W[Dab][Trp(1-CH2COOH)][NMeNle][NMeNle]LCGGD-X20; thioether N-14)
2,10 to 99 nM,CCCC[C@H]1C(=O)N(C)[C@@H](CCCC)C(=O)N[C@@H](CC(C)C)C(=O)N[C@H](C(=O)NCCCCCCCCCCCCC(=O)O)CSCC(=O)N[C@@H](Cc2ccc(O)cc2)C(=O)N(C)[C@@H](C)C(=O)N[C@@H](CC(N)=O)C(=O)N2CCC[C@@H]2C(=O)N[C@@H](CN)C(=O)N[C@@H](CC(C)C)C(=O)N2C[C@@H](O)C[C@H]2C(=O)N[C@@H](Cc2c[nH]c3ccccc23)C(=O)N[C@@H](CCN)C(=O)N[C@@H](Cc2cn(CC(=O)O)c3ccccc23)C(=O)N1C [Example 11204] ({CH2CO}-Y[NMeA]N[dP][Dap]L[cisHyp]W[Dab][Trp(1-CH2COOH)][NMeNle][NMeNle]LC-{NH(CH2)12COOH}; thioether N-14)
3,0.3 to 9.9 nM,CCCC[C@H]1C(=O)N(C)[C@@H](CCCC)C(=O)N[C@@H](CC(C)C)C(=O)N[C@H](C(=O)N[C@H](CC(=O)O)C(=O)NCC(=O)NCCCCCCCCCCCCC(=O)O)CSCC(=O)N[C@@H](Cc2ccc(O)cc2)C(=O)N(C)[C@@H](C)C(=O)N[C@@H](CC(=O)O)C(=O)N2CCC[C@@H]2C(=O)N[C@@H](Cc2cnc[nH]2)C(=O)N[C@@H](CCCCN)C(=O)N2C[C@@H](O)C[C@H]2C(=O)N[C@@H](Cc2c[nH]c3ccccc23)C(=O)N[C@@H](CCCCN)C(=O)N[C@@H](Cc2cn(CC(=O)O)c3ccccc23)C(=O)N1C [Example 11211] ({CH2CO}-Y[NMeA]D[dP]HK[cisHyp]WK[Trp(1-CH2COOH)][NMeNle][NMeNle]LC[dD]G-{NH(CH2)12COOH}; thioether N-14)
4,10 to 99 nM,CCCC[C@H]1C(=O)N(C)[C@@H](CCCC)C(=O)N[C@@H](CC(C)C)C(=O)N[C@H](C(=O)NCC(=O)N[C@@H](CC(=O)O)C(=O)NCCCCCCCCCCCCC(=O)O)CSCC(=O)N[C@@H](Cc2ccc(O)cc2)C(=O)N(C)[C@@H](C)C(=O)N[C@@H](CC(=O)O)C(=O)N2CCC[C@H]2C(=O)N[C@@H](Cc2cnc[nH]2)C(=O)N[C@@H](CCCCN)C(=O)N2C[C@H](O)C[C@H]2C(=O)N[C@@H](Cc2c[nH]c3ccccc23)C(=O)N[C@@H](CCCCN)C(=O)N[C@@H](Cc2cn(CC(=O)O)c3ccccc23)C(=O)N1C [Example 11213] ({CH2CO}-Y[NMeA]DPHK[Hyp]WK[Trp(1-CH2COOH)][NMeNle][NMeNle]LCGD-{NH(CH2)12COOH}; thioether N-14)
5,10 to 99 nM,CCCC[C@H]1C(=O)N(C)[C@@H](CCCC)C(=O)N[C@@H](CC(C)C)C(=O)N[C@H](C(=O)NCCCOCCOCCOCCCNC(=O)CCC(=O)NCCCCCCCCCCCCC(=O)O)CSCC(=O)N[C@@H](Cc2ccc(O)cc2)C(=O)N(C)[C@@H](C)C(=O)N[C@@H](CC(N)=O)C(=O)N2CCC[C@H]2C(=O)N[C@@H](CN)C(=O)N[C@@H](CC(C)C)C(=O)N2C[C@H](O)C[C@H]2C(=O)N[C@@H](Cc2c[nH]c3ccccc23)C(=O)N[C@@H](CCN)C(=O)N[C@@H](Cc2cn(CC(=O)O)c3ccccc23)C(=O)N1C [Example 11214] ({CH2CO}-Y[NMeA]NP[Dap]L[Hyp]W[Dab][Trp(1-CH2COOH)][NMeNle][NMeNle]LC-X8; thioether N-14)
6,10 to 99 nM,CCCC[C@H]1C(=O)N(C)[C@@H](CCCC)C(=O)N[C@@H](CC(C)C)C(=O)N[C@H](C(=O)NCC(=O)NCC(=O)NCC(=O)NCCCCCCCCCCCCC(=O)O)CSCC(=O)N[C@@H](Cc2ccc(O)cc2)C(=O)N(C)[C@@H](C)C(=O)N[C@@H](CC(N)=O)C(=O)N2CCC[C@H]2C(=O)N[C@@H](CN)C(=O)N[C@@H](CC(C)C)C(=O)N2C[C@H](O)C[C@H]2C(=O)N[C@@H](Cc2c[nH]c3ccccc23)C(=O)N[C@@H](CCN)C(=O)N[C@@H](Cc2cn(CC(=O)O)c3ccccc23)C(=O)N1C [Example 11215] ({CH2CO}-Y[NMeA]NP[Dap]L[Hyp]W[Dab][Trp(1-CH2COOH)][NMeNle][NMeNle]LCGGG-{NH(CH2)12COOH}; thioether N-14)
7,10 to 99 nM,CCCC[C@H]1C(=O)N(C)[C@@H](CCCC)C(=O)N[C@@H](CC(C)C)C(=O)N[C@H](C(=O)NCC(=O)NCC(=O)NCC(=O)NCCCCCCCCCCCCC(=O)O)CSCC(=O)N[C@@H](Cc2ccc(O)cc2)C(=O)N(C)[C@@H](C)C(=O)N[C@@H](CC(=O)O)C(=O)N2CCC[C@H]2C(=O)N[C@@H](Cc2cnc[nH]2)C(=O)N[C@@H](CCCCN)C(=O)N2C[C@H](O)C[C@H]2C(=O)N[C@@H](Cc2c[nH]c3ccccc23)C(=O)N[C@@H](CCCCN)C(=O)N[C@@H](Cc2cn(CC(=O)O)c3ccccc23)C(=O)N1C [Example 11216] ({CH2CO}-Y[NMeA]DPHK[Hyp]WK[Trp(1-CH2COOH)][NMeNle][NMeNle]LCGGG-{NH(CH2)12COOH}; thioether N-14)
